Consider 7 compounds from patent US7339061B2, “3-(4-oxo-4H-chromen-2-yl)-(1H)-quinolin-4-one derivatives, method for preparing same and pharmaceutical compositions containing same” (Les Laboratoires Servier, priority 2002, dated 2008).

As a reminder, the melting point is the temperature of the solid-liquid transition.

Data set [1] has as its system prostate cancer line (LN CaP). The data set can be described thus: Apoptotic effect, TUNEL test. Type of data set: cell-based. As to conditions: LN CaP cells incubated at the IC50 concentration, 8 to 96 hours; early = 8 hours. As for the experimental part: Study of the pro-apoptotic effects of compounds of the invention is carried out on a prostate cancer line (LN CaP). The cells were incubated for periods ranging from 8 to 96 hours at the IC50 concentration.
The TUNEL test was then carried out according to the method described by Sgonc in Trends Genetics—1994; 10:41.

The subject of data set [2] is Eleven cell lines from cancers of different origins and sites (lung, breast, prostate, colon, blood, bladder, skin, ovary, brain). In words: In vitro cytotoxicity, MTT test, 96 hours incubation. Type of data set: cell-based. As to conditions: lines to which the stated IC50 range applies. As for the experimental part: Eleven cell lines from cancers of different origins and sites (lung, breast, prostate, colon, blood, bladder, skin, ovary, brain) are cultured in order to study the various compounds in comparison to the reference substance.
The cells are incubated for 96 hours with various concentrations of compounds of the invention.
The in vitro cytotoxic activity is determined by the MTT [3-(4,5-dimethylthiazol-2-yl)-2,5-diphenyltetrazolium bromide] test as described by Carmichael in Cancer Res.—1987; 47 (4): 936-942.
The activity is expressed in terms of the IC50, that is to say the concentration which inhibits proliferation of the tumour cells by 50%.
Background: Tetrazolium dyes change colour on reduction, which living cells bring about.

The subject of another data set is lung cancer cells. The data set can be described thus: In vitro synergistic effect with anti-cancer agent (MTT test, Chou and Talabay analysis), lung cancer cells. Type of data set: cell-based. As to conditions: 96 hours, five concentrations of compound and of cisplatin (CDDP). Here is the method: (§1) Three cell lines which are sensitive to three anti-cancer agents are used: breast cancer cells in association with treatment with tamoxifen (TXL), lung cancer cells in association with treatment with cisplatin (CDDP), and colon cancer cells in association with treatment with SN38, a metabolite of CPT-11 (irinotecan).
(§2) The tumour cells are incubated for 96 hours together with five different concentrations of each of the compounds of the invention and five concentrations of each of the anti-cancer agents in association.
(§3) The in vitro cytotoxic activity is determined by the MTT test described in Example 24. Analysis of the data is carried out according to the method of Chou and Talabay, published in Trends Pharmaceutical Sci.—1983; 4:450.

A further data set concerns breast cancer cells. In words: In vitro synergistic effect with anti-cancer agent (MTT test, Chou and Talabay analysis), breast cancer cells. The format is cell-based. As to conditions: 96 hours, five concentrations of compound and of anti-cancer agent; method names tamoxifen (TXL) on breast cancer cells. Here is the method: as §1, §2, §3

In turn, `O=c1c(-c2cc(=O)c3c(O)cccc3o2)cn(-c2ccccc2)c2ccccc12` [Example 6, 3-(5-Hydroxy-4-oxo-4H-1-benzopyran-2-yl)-1-phenyl-1H-quinolin-4-one] had a melting point above 300 °C. Also, the “apoptosis (TUNEL test)” value in data set [1] is “very high apoptosis”.
For `COc1cc(OC)c2c(=O)cc(-c3cn(-c4ccccc4)c4ccccc4c3=O)oc2c1C1=CCN(C)CC1` [Example 9, 3-[5,7-Dimethoxy-8-(1-methyl-1,2,5,6-tetrahydropyridin-4-yl)-4-oxo-4H-1-benzopyran-2-yl]-1-phenyl-1H-1,4-dihydroquinolin-4-one], the “number of the 11 lines tested with respect to which the compound has cytotoxic activity” value in data set [2] is 8 of the 11.
The compound `O=c1cc(-c2cn(-c3ccccc3)c3ccccc3c2=O)oc2ccccc12` [Example 8, 3-(4-Oxo-4H-1-benzopyran-2-yl)-1-phenyl-1H-quinolin-4-one] gave a melting point of 327 to 328 °C.
On to `O=c1c(-c2cc(=O)c3c(O)cc(O)c(C4=CCN(Cc5ccccc5)CC4)c3o2)cn(-c2ccccc2)c2ccccc12` [Example 16, 3-[5,7-Dihydroxy-8-(1-benzyl-1,2,5,6-tetrahydropyridin-4-yl)-4-oxo-4H-1-benzopyran-2-yl]-1-phenyl-1H-1,4-dihydroquinolin-4-one], for which the “synergistic effect with cisplatin” value in the data set with lung cancer cells is recorded as “synergistic effect”. The “synergistic effect with paclitaxel” value in the data set with breast cancer cells is “synergistic effect”.
On to `O=c1cc(-c2cn(-c3ccccc3)c3ccccc3c2=O)oc2cc(O)ccc12` [Example 2, 3-(7-Hydroxy-4-oxo-4H-1-benzopyran-2-yl)-1-phenyl-1H-quinolin-4-one], for which the melting point was in the range of 295 to 300 °C.
Still for that read-out and setting: to `COc1cc(O)c2c(=O)cc(-c3cn(-c4ccccc4)c4ccccc4c3=O)oc2c1` [Example 7, 3-(5-Hydroxy-7-methoxy-4-oxo-4H-1-benzopyran-2-yl)-1-phenyl-1H-quinolin-4-one] belongs 295 to 296 °C.
Regarding `CN1CC=C(c2c(O)cc(O)c3c(=O)cc(-c4cn(-c5ccccc5)c5ccccc5c4=O)oc23)CC1` [Example 14, 3-[5,7-Dihydroxy-8-(1-methyl-1,2,5,6-tetrahydropyridin-4-yl)4-oxo-4H-1-benzopyran-2-yl]-1-phenyl-1H-1,4-dihydroquinolin-4-one], in the data set with lung cancer cells, the “synergistic effect with cisplatin” value is given as “synergistic effect”. Moreover, the “synergistic effect with paclitaxel” value in the data set with breast cancer cells is listed as “synergistic effect”. Moreover, in data set [2], the “number of the 11 lines tested with respect to which the compound has cytotoxic activity” value is recorded as 5 of the 11.
